Laboratory results from patent publication US20250136578A1 (Kolm Therapeutics Inc., priority 2023, published 2025).
Where two headings read alike, the source gives them in different places.

Legend:
AR / CBP ternary complex = AR / CBP ternary complex (Homo sapiens, UniProt P10275+Q92793); test: Ternary complex formation assay (sandwich ELISA, AR capture, CBP antibody detection) in VCaP cell lysates; type: cell-based
Summary of the method: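 Sandwich ELISA: plates were coated with anti-AR antibody (AR441) and given lysates of VCaP cells treated 1.5 h with bifunctional compound in charcoal-stripped serum. Co-captured CBP or p300 was probed with rabbit mAbs and HRP secondary. Chemifluorescent signal (ex 570/em 585) was read at 0, 5 and 15 min.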

VCaP cells = test: VCaP growth inhibition assay (CTG); type: cell-based; conditions: Homo sapiens, 216 h, 30 pM R1881, 9 days
Summary of the method: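 Growth was measured by CTG luminescence after a 9-day exposure of VCaP cells to compound (final 10 fM–100 nM, fivefold steps) in the presence of 30 pM final R1881, in phenol red-free DMEM/5% CSS. IC50 values were derived by nonlinear 4-parameter regression of RLU against concentration.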

[1] = treated 1.5 hours, rabbit CBP or p300 antibody detection, average, read-out: Average Ternary Complex

AR / CBP ternary complex, sequence (P10275 whole entry): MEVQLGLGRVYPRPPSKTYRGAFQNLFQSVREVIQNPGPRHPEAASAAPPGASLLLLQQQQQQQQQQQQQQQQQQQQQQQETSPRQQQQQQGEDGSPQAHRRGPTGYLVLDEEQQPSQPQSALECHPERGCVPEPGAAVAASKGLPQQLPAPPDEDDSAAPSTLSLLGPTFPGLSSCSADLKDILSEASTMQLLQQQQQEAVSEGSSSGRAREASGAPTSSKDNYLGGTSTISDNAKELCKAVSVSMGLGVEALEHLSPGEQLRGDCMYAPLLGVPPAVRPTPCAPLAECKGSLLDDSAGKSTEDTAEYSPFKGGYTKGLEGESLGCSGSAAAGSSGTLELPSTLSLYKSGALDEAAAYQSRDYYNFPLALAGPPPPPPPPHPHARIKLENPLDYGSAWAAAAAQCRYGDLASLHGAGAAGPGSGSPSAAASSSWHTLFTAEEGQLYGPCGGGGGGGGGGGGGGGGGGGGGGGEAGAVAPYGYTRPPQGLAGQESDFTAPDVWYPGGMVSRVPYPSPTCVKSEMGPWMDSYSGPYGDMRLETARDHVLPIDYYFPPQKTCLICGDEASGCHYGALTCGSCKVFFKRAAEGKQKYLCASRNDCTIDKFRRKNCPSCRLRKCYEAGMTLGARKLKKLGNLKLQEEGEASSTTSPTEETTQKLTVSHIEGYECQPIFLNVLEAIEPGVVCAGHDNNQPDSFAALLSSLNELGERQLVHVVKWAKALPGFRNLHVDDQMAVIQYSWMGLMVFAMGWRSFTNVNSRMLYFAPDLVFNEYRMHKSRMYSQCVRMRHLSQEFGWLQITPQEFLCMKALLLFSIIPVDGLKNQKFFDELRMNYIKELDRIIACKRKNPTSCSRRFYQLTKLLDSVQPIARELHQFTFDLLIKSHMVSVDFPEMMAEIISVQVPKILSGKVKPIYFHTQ
AR / CBP ternary complex, sequence (Q92793 2-2442): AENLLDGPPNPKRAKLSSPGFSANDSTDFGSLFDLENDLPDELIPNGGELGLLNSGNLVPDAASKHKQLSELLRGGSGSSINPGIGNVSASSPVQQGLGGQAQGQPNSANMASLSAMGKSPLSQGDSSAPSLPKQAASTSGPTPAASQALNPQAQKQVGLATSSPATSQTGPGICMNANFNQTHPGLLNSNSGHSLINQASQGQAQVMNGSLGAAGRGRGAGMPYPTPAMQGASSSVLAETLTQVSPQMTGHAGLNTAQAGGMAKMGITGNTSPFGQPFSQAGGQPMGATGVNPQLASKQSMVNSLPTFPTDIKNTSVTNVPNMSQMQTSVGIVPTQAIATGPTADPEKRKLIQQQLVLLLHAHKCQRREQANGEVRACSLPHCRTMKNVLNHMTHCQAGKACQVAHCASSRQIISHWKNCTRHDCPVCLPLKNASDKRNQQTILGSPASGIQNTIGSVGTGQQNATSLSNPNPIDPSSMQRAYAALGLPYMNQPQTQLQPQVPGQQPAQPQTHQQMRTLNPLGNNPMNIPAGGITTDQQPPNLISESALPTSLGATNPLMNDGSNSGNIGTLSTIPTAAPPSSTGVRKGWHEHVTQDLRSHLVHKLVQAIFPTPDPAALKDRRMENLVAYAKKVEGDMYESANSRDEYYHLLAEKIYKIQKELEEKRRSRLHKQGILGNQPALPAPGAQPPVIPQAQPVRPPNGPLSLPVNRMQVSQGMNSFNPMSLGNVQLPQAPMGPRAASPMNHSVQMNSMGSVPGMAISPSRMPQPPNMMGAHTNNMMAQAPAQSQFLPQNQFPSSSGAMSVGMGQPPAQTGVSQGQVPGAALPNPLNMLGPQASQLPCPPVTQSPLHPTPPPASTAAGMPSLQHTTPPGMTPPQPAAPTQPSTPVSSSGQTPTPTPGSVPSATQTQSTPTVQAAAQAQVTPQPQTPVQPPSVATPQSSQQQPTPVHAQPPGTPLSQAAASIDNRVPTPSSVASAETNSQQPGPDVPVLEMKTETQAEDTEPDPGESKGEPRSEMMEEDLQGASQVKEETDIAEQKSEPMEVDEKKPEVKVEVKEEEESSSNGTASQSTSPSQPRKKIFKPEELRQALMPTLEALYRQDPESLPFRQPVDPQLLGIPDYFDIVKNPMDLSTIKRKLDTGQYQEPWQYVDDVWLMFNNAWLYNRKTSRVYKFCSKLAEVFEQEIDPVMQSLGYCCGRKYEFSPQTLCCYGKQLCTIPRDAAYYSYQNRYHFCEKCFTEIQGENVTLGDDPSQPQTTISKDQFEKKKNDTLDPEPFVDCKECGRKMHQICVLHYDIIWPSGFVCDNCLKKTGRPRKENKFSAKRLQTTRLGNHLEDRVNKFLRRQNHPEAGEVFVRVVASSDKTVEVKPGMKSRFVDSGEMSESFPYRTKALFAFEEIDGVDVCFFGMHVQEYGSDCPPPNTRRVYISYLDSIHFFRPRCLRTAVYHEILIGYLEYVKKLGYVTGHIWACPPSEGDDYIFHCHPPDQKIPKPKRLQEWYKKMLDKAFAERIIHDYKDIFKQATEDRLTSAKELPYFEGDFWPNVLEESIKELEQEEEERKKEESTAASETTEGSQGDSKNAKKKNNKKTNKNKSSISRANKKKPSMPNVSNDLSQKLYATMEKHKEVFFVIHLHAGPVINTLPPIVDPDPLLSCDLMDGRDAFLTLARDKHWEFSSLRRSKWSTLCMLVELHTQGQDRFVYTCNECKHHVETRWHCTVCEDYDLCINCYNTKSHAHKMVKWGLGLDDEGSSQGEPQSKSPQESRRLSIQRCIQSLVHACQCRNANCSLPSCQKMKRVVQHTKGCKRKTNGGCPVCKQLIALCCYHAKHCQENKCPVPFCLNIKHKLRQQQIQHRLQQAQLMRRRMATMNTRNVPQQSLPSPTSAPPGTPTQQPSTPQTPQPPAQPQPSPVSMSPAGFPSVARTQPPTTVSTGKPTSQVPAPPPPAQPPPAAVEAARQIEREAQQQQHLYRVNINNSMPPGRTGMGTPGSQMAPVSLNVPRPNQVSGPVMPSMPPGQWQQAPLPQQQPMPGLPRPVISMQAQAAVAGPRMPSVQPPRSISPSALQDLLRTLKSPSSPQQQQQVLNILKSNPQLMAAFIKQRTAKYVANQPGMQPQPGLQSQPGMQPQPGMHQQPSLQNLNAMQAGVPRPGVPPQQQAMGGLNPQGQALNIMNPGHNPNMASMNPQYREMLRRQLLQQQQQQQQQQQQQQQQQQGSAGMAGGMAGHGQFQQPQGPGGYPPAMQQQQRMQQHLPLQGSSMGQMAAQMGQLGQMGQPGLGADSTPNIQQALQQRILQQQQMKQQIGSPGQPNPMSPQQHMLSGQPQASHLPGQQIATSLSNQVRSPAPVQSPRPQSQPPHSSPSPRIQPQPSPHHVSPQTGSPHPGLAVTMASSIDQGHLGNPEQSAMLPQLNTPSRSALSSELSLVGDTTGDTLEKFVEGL

SMILES	EC50 (AR / CBP ternary complex; [1])	IC50 (VCaP cells)	EC50 (AR / CBP ternary complex; read-out: Average Ternary Complex, treated 1.5 hours, rabbit CBP or p300 antibody detection)
CC(=O)N1CCc2c(c(N3CCCc4cc(-c5cnn(C)c5)c(C(F)F)cc43)nn2C2CC3(C2)CC2(CCN(c4ccc(C(=O)N[C@H]5CC[C@H](Oc6ccc(C#N)c(Cl)c6)CC5)nn4)CC2)C3)C1 [Compound 191, 6-[2-[5-acetyl-3-[7-(difluoromethyl)-6-(1-methylpyrazol-4-yl)-3,4-dihydro-2H-quinolin-1-yl]-6,7-dihydro-4H-pyrazolo[4,3-c]pyridin-1-yl]-9-azadispiro[3.1.56.14]dodecan-9-yl]-N-[4-(3-chloro-4-cyano-phenoxy)cyclohexyl] pyridazine-3-carboxamide]	< 1 nM	0.1 to 1 nM	
CC(=O)N1CCc2c(c(N3CCCc4cc(-c5cnn(C)c5)c(C(F)F)cc43)nn2[C@H]2CC[C@@H](N3CCC4(CC3)CN(c3ccc(C(=O)N[C@H]5CC[C@H](Oc6ccc(C#N)c(Cl)c6)CC5)nn3)C4)CC2)C1 [Compound 192, 6-[7-[4-[5-acetyl-3-[7-(difluoromethyl)-6-(1-methylpyrazol-4-yl)-3,4-dihydro-2H-quinolin-1-yl]-6,7-dihydro-4H-pyrazolo[4,3-c]pyridin-1-yl]cyclohexyl]-2,7-diazaspiro[3.5]nonan-2-yl]-N-[4-(3-chloro-4-cyano-phenoxy)cyclohexyl]pyridazine-3-carboxamide]	< 1 nM	≤ 0.1 nM	
CC(=O)N1CCc2c(c(N3CCCc4cc(-c5cnn(C)c5)c(C(F)F)cc43)nn2C2CCN(C3CCC(C#Cc4ccc(C(=O)N[C@H]5CC[C@H](Oc6ccc(C#N)c(Cl)c6)CC5)nn4)CC3)CC2)C1 (some centres unmarked) [Compound 194, 6-[2-[4-[4-[5-acetyl-3-[7-(difluoromethyl)-6-(1-methylpyrazol-4-yl)-3,4-dihydro-2H-quinolin-1-yl]-6,7-dihydro-4H-pyrazolo[4,3-c]pyridin-1-yl]-1-piperidyl]cyclohexyl]ethynyl]-N-[4-(3-chloro-4-cyano-phenoxy)cyclohexyl]pyridazine-3-carboxamide]	< 1 nM	≤ 0.1 nM	
CC(=O)N1CCc2c(c(N3CCCc4cc(-c5cnn(C)c5)c(C(F)F)cc43)nn2C2CCN(C3(C)CCN(c4ccc(C(=O)N[C@H]5CC[C@H](Oc6ccc(C#N)c(Cl)c6)CC5)nn4)CC3)CC2)C1 [Compound 201, 6-[4-[4-[5-acetyl-3-[7-(difluoromethyl)-6-(1-methylpyrazol-4-yl)-3,4-dihydro-2H-quinolin-1-yl]-6,7-dihydro-4H-pyrazolo[4,3-c]pyridin-1-yl]-1-piperidyl]-4-methyl-1-piperidyl]-N-[4-(3-chloro-4-cyano-phenoxy)cyclohexyl]pyridazine-3-carboxamide]	< 1 nM	≤ 0.1 nM	
CC(=O)N1CCc2c(c(N3CCCc4cc(-c5cnn(C)c5)c(C(F)F)cc43)nn2[C@H]2CC[C@@H](OC3CCN(c4ccc(C(=O)N[C@H]5CC[C@H](Oc6ccc(C#N)c(Cl)c6)CC5)nn4)CC3)CC2)C1 [Compound 204, 6-[4-[4-[5-acetyl-3-[7-(difluoromethyl)-6-(1-methylpyrazol-4-yl)-3,4-dihydro-2H-quinolin-1-yl]-6,7-dihydro-4H-pyrazolo[4,3-c]pyridin-1-yl]cyclohexoxy]-1-piperidyl]-N-[4-(3-chloro-4-cyano-phenoxy)cyclohexyl]pyridazine-3-carboxamide]	< 1 nM	≤ 0.1 nM	
CC(=O)N1CCc2c(c(N3CCCc4cc(-c5cnn(C)c5)c(C(F)F)cc43)nn2[C@H]2CC[C@H](OC3CCN(c4ccc(C(=O)N[C@H]5CC[C@H](Oc6ccc(C#N)c(Cl)c6)CC5)nn4)CC3)CC2)C1 [Compound 205, 6-[4-[4-[5-acetyl-3-[7-(difluoromethyl)-6-(1-methylpyrazol-4-yl)-3,4-dihydro-2H-quinolin-1-yl]-6,7-dihydro-4H-pyrazolo[4,3-c]pyridin-1-yl]cyclohexoxy]-1-piperidyl]-N-[4-(3-chloro-4-cyano-phenoxy)cyclohexyl]pyridazine-3-carboxamide]	< 1 nM	≤ 0.1 nM	
CC(=O)N1CCc2c(c(N3CCCc4cc(-c5cnn(C)c5)c(C(F)F)cc43)nn2C2CCC3(CC2)CC(N2CCN(c4ccc(C(=O)N[C@H]5CC[C@H](Oc6ccc(C#N)c(Cl)c6)CC5)nn4)CC2)C3)C1 (some centres unmarked) [Compound 208, 6-[4-[7-[5-acetyl-3-[7-(difluoromethyl)-6-(1-methylpyrazol-4-yl)-3,4-dihydro-2H-quinolin-1-yl]-6,7-dihydro-4H-pyrazolo[4,3-c]pyridin-1-yl]spiro[3.5]nonan-2-yl]piperazin-1-yl]-N-[4-(3-chloro-4-cyano-phenoxy)cyclohexyl]pyridazine-3-carboxamide]		≤ 0.1 nM	< 1 nM
CC(=O)N1CCc2c(c(N3CCCc4cc(-c5cnn(C)c5)c(C(F)F)cc43)nn2[C@H]2CC[C@H](CN3CCN(c4ccc(C(=O)N[C@H]5CC[C@H](Oc6ccc(C#N)c(Cl)c6)CC5)nn4)CC3)CC2)C1 [Compound 209, 6-[4-[[4-[5-acetyl-3-[7-(difluoromethyl)-6-(1-methylpyrazol-4-yl)-3,4-dihydro-2H-quinolin-1-yl]-6,7-dihydro-4H-pyrazolo[4,3-c]pyridin-1-yl]cyclohexyl]methyl]piperazin-1-yl]-N-[4-(3-chloro-4-cyano-phenoxy)cyclohexyl]pyridazine-3-carboxamide]	< 1 nM	≤ 0.1 nM	
CC(=O)N1CCc2c(c(N3CCCc4cc(-c5cnn(C)c5)c(C(F)F)cc43)nn2[C@H]2CC[C@@H](CN3CCN(c4ccc(C(=O)N[C@H]5CC[C@H](Oc6ccc(C#N)c(Cl)c6)CC5)nn4)CC3)CC2)C1 [Compound 210, 6-[4-[[4-[5-acetyl-3-[7-(difluoromethyl)-6-(1-methylpyrazol-4-yl)-3,4-dihydro-2H-quinolin-1-yl]-6,7-dihydro-4H-pyrazolo[4,3-c]pyridin-1-yl]cyclohexyl]methyl]piperazin-1-yl]-N-[4-(3-chloro-4-cyano-phenoxy)cyclohexyl]pyridazine-3-carboxamide]	< 1 nM	≤ 0.1 nM	
CC(=O)N1CCc2c(c(N3CCCc4cc(-c5ccc(N6CC(N7CCN(c8ccc(C(=O)N[C@H]9CC[C@H](Oc%10ccc(C#N)c(Cl)c%10)CC9)nn8)CC7)C6)nc5)c(C(F)F)cc43)nn2C2CCOCC2)C1 [Compound 216]	< 1 nM	≤ 0.1 nM	

Now from value to molecule, other results behind:

EC50 (AR / CBP ternary complex; [1])	IC50 (VCaP cells)	SMILES	EC50 (AR / CBP ternary complex; read-out: Average Ternary Complex, treated 1.5 hours, rabbit CBP or p300 antibody detection)
< 1 nM	≤ 0.1 nM	CC(=O)N1CCc2c(c(N3CCCc4cc(-c5cnn(C)c5)c(C(F)F)cc43)nn2C2CCN(C3CC(C#Cc4ccc(C(=O)N[C@H]5CC[C@H](Oc6ccc(C#N)c(Cl)c6)CC5)nn4)C3)CC2)C1 (some centres unmarked) [Compound 195, 6-[2-[3-[4-[5-acetyl-3-[7-(difluoromethyl)-6-(1-methylpyrazol-4-yl)-3,4-dihydro-2H-quinolin-1-yl]-6,7-dihydro-4H-pyrazolo[4,3-c]pyridin-1-yl]-1-piperidyl]cyclobutyl]ethynyl]-N-[4-(3-chloro-4-cyano-phenoxy)cyclohexyl]pyridazine-3-carboxamide]	
< 1 nM	≤ 0.1 nM	CC(=O)N1CCc2c(c(N3CCCc4cc(-c5cnn(C)c5)c(C(F)F)cc43)nn2C2CCC3(CC2)CCN(C2CN(c4ccc(C(=O)NC5CCC(Oc6ccc(C#N)c(Cl)c6)CC5)nn4)C2)CC3)C1 (centres unmarked) [Compound 197, 6-[3-[9-[5-acetyl-3-[7-(difluoromethyl)-6-(1-methylpyrazol-4-yl)-3,4-dihydro-2H-quinolin-1-yl]-6,7-dihydro-4H-pyrazolo[4,3-c]pyridin-1-yl]-3-azaspiro[5.5]undecan-3-yl]azetidin-1-yl]-N-[4-(3-chloro-4-cyanophenoxy)cyclohexyl]pyridazine-3-carboxamide]	
< 1 nM	≤ 0.1 nM	CC(=O)N1CCc2c(c(N3CCCc4cc(-c5cnn(C)c5)c(C(F)F)cc43)nn2C2CCN(C3CCN(c4ccc(C(=O)N[C@H]5CC[C@H](Oc6ccc(C#N)c(Cl)c6)CC5)nn4)CC3(F)F)CC2)C1 (some centres unmarked) [Compound 198, 6-[4-[4-[5-acetyl-3-[7-(difluoromethyl)-6-(1-methylpyrazol-4-yl)-3,4-dihydro-2H-quinolin-1-yl]-6,7-dihydro-4H-pyrazolo[4,3-c]pyridin-1-yl]-1-piperidyl]-3,3-difluoro-1-piperidyl]-N-[4-(3-chloro-4-cyano-phenoxy)cyclohexyl]pyridazine-3-carboxamide]	
< 1 nM	≤ 0.1 nM	CC(=O)N1CCc2c(c(N3CCCc4cc(-c5cnn(C)c5)c(C(F)F)cc43)nn2C2CCN([C@@H]3CCN(c4ccc(C(=O)N[C@H]5CC[C@H](Oc6ccc(C#N)c(Cl)c6)CC5)nn4)C[C@@H]3C)CC2)C1 [Compound 200]	
< 1 nM	≤ 0.1 nM	CC(=O)N1CCc2c(c(N3CCCc4cc(-c5cnn(C)c5)c(C(F)F)cc43)nn2C2CCN(C3CN(c4ccc(C(=O)N[C@H]5CC[C@H](Oc6ccc(C#N)c(Cl)c6)CC5)nn4)C3)CC2)C1 [Compound 206, 6-[3-[4-[5-acetyl-3-[7-(difluoromethyl)-6-(1-methylpyrazol-4-yl)-3,4-dihydro-2H-quinolin-1-yl]-6,7-dihydro-4H-pyrazolo[4,3-c]pyridin-1-yl]-1-piperidyl]azetidin-1-yl]-N-[4-(3-chloro-4-cyano-phenoxy)cyclohexyl]pyridazine-3-carboxamide]	
< 1 nM	≤ 0.1 nM	CC(=O)N1CCc2c(c(N3CCCc4cc(-c5cnn(C)c5)c(C(F)F)cc43)nn2C2CCN(CC3C(C)CN(c4ccc(C(=O)N[C@H]5CC[C@H](Oc6ccc(C#N)c(Cl)c6)CC5)nn4)CC3C)CC2)C1 (some centres unmarked) [Compound 217, 6-[4-[[4-[5-acetyl-3-[7-(difluoromethyl)-6-(1-methylpyrazol-4-yl)-3,4-dihydro-2H-quinolin-1-yl]-6,7-dihydro-4H-pyrazolo[4,3-c]pyridin-1-yl]-1-piperidyl]methyl]-3,5-dimethyl-1-piperidyl]-N-[4-(3-chloro-4-cyano-phenoxy)cyclohexyl]pyridazine-3-carboxamide]	
